In PMC2693028 (ChemMedChem, 2008):
Values after ≈ are worked out from the molar mass of the structure shown. Values joined by “and” are separate entries in the source; they are usually repeats but may differ in a detail not shown here. Equal entries are not always repeated. Where two headings read alike, the source gives them in different places.

Columns and labels:
[1] = target: Enoyl reducase (ENR) from Bacillus anthracis (BaENR) (Bacillus anthracis, UniProt A0A6L8PBX8); experiment: biochemical; settings: for inhibition at 1 µM: read-out: % inhibition at 1μM
[2] = test system: ΔANR B. anthracis; experiment: microbe, parasite or virus in culture; assay type: cell-based, Bacillus anthracis

Sequence of Enoyl reducase (ENR) from Bacillus anthracis (BaENR) (A0A6L8PBX8 1-256): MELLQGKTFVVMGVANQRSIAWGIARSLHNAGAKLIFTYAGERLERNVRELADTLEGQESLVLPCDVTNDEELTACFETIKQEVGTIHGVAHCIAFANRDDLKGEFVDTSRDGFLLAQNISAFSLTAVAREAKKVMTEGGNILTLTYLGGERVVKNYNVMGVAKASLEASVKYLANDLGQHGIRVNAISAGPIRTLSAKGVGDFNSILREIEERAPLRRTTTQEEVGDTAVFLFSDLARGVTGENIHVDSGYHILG

Compound	IC50 ([1]; IC50)	MIC ([2]; Bacillus anthracis) [µg/mL]	inhibition at 1 µM [1] [%]	other results
3-[3-(2-Hydroxy-4-propylphenoxy)phenyl]propionic acid [Compound 50]	–	–	–	% inhibition at 1μM [1]: 17.9%; MIC [2]: 14.9 µg/mL
Oc1ccc(Oc2ccccc2)c(O)c1 [Compound 1, 4-Phenoxybenzene-1,3-diol]	6.3 ± 0.4 µM	64 (≈ 317 µM)	–	–
O=[N+]([O-])c1ccc(Oc2ccccc2)c(O)c1 [Compound 2, 5-Nitro-2-phenoxyphenol]	> 50 µM	5.8 (≈ 25.1 µM)	–	–
Oc1ccc(Oc2ccc(Cl)cc2O)cc1 [Compound 3, 5-Chloro-2-(4-hydroxyphenoxy)phenol]	–	> 64	2.6	–
O=[N+]([O-])c1ccc(Oc2ccc(Cl)cc2O)cc1 [Compound 4, 5-Chloro-2-(4-nitrophenoxy)phenol]	–	3.3 (≈ 12.4 µM)	–	–
O=[N+]([O-])c1ccccc1Oc1ccc(Cl)cc1O [Compound 5, 5-Chloro-2-(2-nitrophenoxy)phenol]	7.7 ± 0.7 µM	13.3 (≈ 50.1 µM)	–	–
Oc1cc(Cl)ccc1Oc1ccc(-c2ccccc2)cc1 [Compound 7, 2-(Biphenyl-4-yloxy)-5-chlorophenol]	> 6.25 µM	1.9 (≈ 6.4 µM)	–	–
CCCc1ccc(Oc2ccc([N+](=O)[O-])cc2)c(O)c1 [Compound 8, 2-(4-Nitrophenoxy)-5-propylphenol]	1.1 ± 0.1 µM	3.4 (≈ 12.4 µM)	–	–
CCCc1ccc(Oc2cccc([N+](=O)[O-])c2)c(O)c1 [Compound 9, 2-(3-Nitrophenoxy)-5-propylphenol]	> 0.8 µM	1.7 (≈ 6.22 µM)	–	–
CCCc1ccc(Oc2ccc([N+](=O)[O-])cc2[N+](=O)[O-])c(O)c1 [Compound 10, 2-(2,4-Dinitrophenoxy)-5-propylphenol]	3.6 ± 0.8 µM	4 (≈ 12.6 µM)	–	–
CCCc1ccc(Oc2ccc(C#N)cc2Cl)c(O)c1 [Compound 12, 3-Chloro-4-(2-hydroxy-4-propylphenoxy)benzonitrile]	> 0.8 µM	1.8 (≈ 6.26 µM)	–	–
CCCc1ccc(Oc2cccc(CCO)c2)c(O)c1 [Compound 13, 2-[3-(2-Hydroxy-ethyl)phenoxy]-5-propylphenol]	–	1.7 (≈ 6.24 µM)	–	IC50 [1]: 6 ± 1.5 µM
O=C(O)c1cc(Cl)ccc1Oc1ccccc1 [Compound 14, 5-Chloro-2-phenoxybenzoic acid]	–	–	0	–
CCCc1ccc(Oc2ccc(C(N)=O)cc2Cl)c(O)c1 [Compound 15, 3-Chloro-4-(2-hydroxy-4-propylphenoxy)benzamide]	1.1 ± 0.1 µM	30.6 (≈ 100 µM)	–	–
OCc1cc(Cl)ccc1Oc1ccccc1 [Compound 16, 5-Chloro-2-phenoxyphenylmethanol]	–	–	1.8	–
NC(=O)c1cc(Cl)ccc1Oc1ccccc1 [Compound 17, 5-Chloro-2-phenoxybenzamide]	–	–	0	–
CC(=O)Nc1ccc(Oc2ccc(Cl)cc2O)cc1 [Compound 18, N-[4-(4-Chloro-2-hydroxy-phenoxy)phenyl]acetamide]	–	111 (≈ 400 µM)	1.6	–
CC(=O)Nc1ccccc1Oc1ccc(Cl)cc1O [Compound 19, N-[2-(4-Chloro-2-hydroxy-phenoxy)phenyl]acetamide]	–	111 (≈ 400 µM)	0	–
Nc1ccc(Oc2ccc(Cl)cc2O)cc1 [Compound 20, 2-(4-Aminophenoxy)-5-chlorophenol]	7 µM and 7.1 µM	12 (≈ 50.9 µM)	–	–
CCCc1ccc(Oc2ccc(N)cc2)c(O)c1 [Compound 21, 2-(4-Aminophenoxy)-5-propylphenol]	8.8 ± 1 µM	> 97	–	–

Compound	IC50 ([1]; IC50)	MIC ([2]; Bacillus anthracis) [µg/mL]	inhibition at 1 µM [1] [%]	other results
Cc1ccc(S(=O)(=O)Nc2ccc(Oc3ccc(Cl)cc3O)cc2)cc1 [Compound 22, 4-(4-Chloro-2-hydroxyphenoxy)-1-(4 methylphenylsulphonamido) benzene]	> 12 µM	4.9 (≈ 12.6 µM)	–	–
CC(=O)Nc1ccc(Oc2ccc(Cl)cc2O)cn1 [Compound 24, N-[5-(4-Chloro-2-hydroxyphenoxy)-pyridin-2-yl]acetamide]	4.1 µM	> 112	–	–
OCC(O)Cc1ccc(Oc2ccccc2)c(O)c1 (stereo not drawn) [Compound 26, 3-(3-Hydroxy-4-phenoxyphenyl)propane-1,2-diol]	–	> 104	9.8	–
CCCc1ccc(Oc2ccccc2)c(O)c1 [Compound 27, 2-Phenoxy-5-propylphenol]	> 0.8 µM	22.8 (≈ 99.9 µM)	–	–
OCc1ccc(Oc2ccccc2)c(O)c1 [Compound 28, 5-Hydroxymethyl-2-phenoxyphenol]	–	43 (≈ 199 µM)	5	–
CCCC(C)NCc1ccc(Oc2ccccc2)c(O)c1 (stereo not drawn) [Compound 29, 5-[(1-Methyl-butylamino)methyl]-2-phenoxyphenol]	–	> 109	0	–
Oc1cc(CN2CCCCC2)ccc1Oc1ccccc1 [Compound 30, 2-Phenoxy-5-piperidin-1-ylmethylphenol]	–	> 113	0	–
Oc1cc(CNCc2ccccc2)ccc1Oc1ccccc1 [Compound 31, 5-(Benzylaminomethyl)-2-phenoxyphenol]	–	> 122	7.9	–
Oc1cc(Cl)ccc1Oc1ccc(Oc2ccc(Cl)cc2O)cc1 [Compound 32, 2-[4-(2-Hydroxy-4-Chlorophenoxy)phenoxy]-5-chlorophenol]	–	> 145	15.5	–
Oc1cc(Cl)ccc1Oc1cccc(Oc2ccc(Cl)cc2O)c1 [Compound 33, 2-[3-(2-Hydroxy-4-chlorophenoxy)phenoxy]-5-chlorophenol]	–	2.3 (≈ 6.33 µM)	9.9	–
CCCc1ccc(Oc2cccc(Oc3ccc(CCC)cc3O)c2)c(O)c1 [Compound 34, 2-[3-(2-Hydroxy-4-propylphenoxy)phenoxy]-5-Propylphenol]	–	1.2 (≈ 3.17 µM)	20.6	–
CCCc1ccc(Oc2ccc(Oc3ccc(CCC)cc3O)cc2)c(O)c1 [Compound 35, 2-[4-(2-Hydroxy-4-propylphenoxy)phenoxy]-5-propylphenol]	–	> 151	10	–
CCCc1ccc(Oc2cccc(-c3ccccc3)c2)c(O)c1 [Compound 36, 2-(Biphenyl-3-yloxy)-5-propylphenol]	–	1.9 (≈ 6.24 µM)	–	IC50 [1]: 0.5 ± 0.1 µM
CCCc1ccc(Oc2cccc(C(=O)OC)c2)c(O)c1 [Compound 37, 3-(2-Hydroxy-4-propylphenoxy)benzoic acid methyl ester]	2 ± 0.3 µM	3.6 (≈ 12.6 µM)	–	–
CCCc1ccc(Oc2cccc(C(=O)O)c2)c(O)c1 [Compound 39, 3-(2-Hydroxy-4-propylphenoxy)benzoic acid]	–	6.8 (≈ 25 µM)	9.2	–
CCCc1ccc(Oc2ccc(C(C)=O)cc2)c(O)c1 [Compound 40, 1-[4-(2-Hydroxy-4-propylphenoxy)phenyl]ethanone]	0.8 ± 0.1 µM	13.5 (≈ 49.9 µM)	–	–
CCCc1ccc(Oc2ccc(SC)cc2)c(O)c1 [Compound 41, 2-(4-Methylsulfanylphenoxy)-5-propylphenol]	0.6 µM	13.5 (≈ 49.2 µM)	–	–
CCCc1ccc(Oc2ccc(C(C)O)cc2)c(O)c1 (stereo not drawn) [Compound 42, 2-[4-(1-Hydroxyethyl)phenoxy]-5-propylphenol]	–	54.5 (≈ 200 µM)	17.1	–
CCCc1ccc(Oc2ccc([S+](C)[O-])cc2)c(O)c1 (stereo not drawn) [Compound 43, 2-(4-Methanesulfinylphenoxy)-5-propylphenol]	3.6 ± 0.3 µM	116 (≈ 399 µM)	–	–
Clc1ccc(Oc2ccc(Cl)cc2Oc2cccnc2)c(Cl)c1 [Compound 52, 3-[5-Chloro-2-(2,4-dichlorophenoxy)phenoxy]pyridine]	–	–	0.5	–
